Source: patent US10117430B2, “Malononitrile compounds for controlling animal pests” (BASF SE, priority 2012, dated 2018)

Tests used:
Format in all cases: in vivo
[1] = test system: Silverleaf Whitefly (Bemisia argentifolii); experiment: B.5 Silverleaf whitefly test on sprayed cotton plants; settings: 72 h, in comparison with untreated controls, 3 days after treatment
Procedure: B.5 Silverleaf Whitefly (Bemisia argentifolii)
The active compounds were formulated in cyclohexanone as a 10,000 ppm solution supplied in 1.3 ml ABgene® tubes. These tubes were inserted into an automated electrostatic sprayer equipped with an atomizing nozzle and they served as stock solutions for which lower dilutions were made in 50% acetone:50% water (v/v). A nonionic surfactant (Kinetic®) was included in the solution at a volume of 0.01% (v/v). Cotton plants at the cotyledon stage (one plant per pot) were sprayed by an automated electrostatic plant sprayer equipped with an atomizing spray nozzle. The plants were dried in the sprayer fume hood and then removed from the sprayer. Each pot was placed into a plastic cup and 10 to 12 whitefly adults (approximately 3-5 days old) were introduced. The insects were collected using an aspirator and 0.6 cm, nontoxic Tygon® tubing (R-3603) connected to a barrier pipette tip. The tip, containing the collected insects, was then gently inserted into the soil containing the treated plant, allowing insects to crawl out of the tip to reach the foliage for feeding. Cups were covered with a reusable screened lid (150-micron mesh polyester screen PeCap from Tetko, Inc.). Test plants were maintained in a growth room at 25° C. and 20-40% relative humidity for 3 days, avoiding direct exposure to fluorescent light (24 hour photoperiod) to prevent trapping of heat inside the cup. Mortality was assessed 3 days after treatment, compared to untreated control plants.

[2] = test system: Boll Weevil (Anthonomus grandis); experiment: B.9 Boll weevil microtiter diet test, egg and larval mortality; settings: 120 h, in comparison with untreated controls, egg and larval mortality after 5 days
Procedure: B.9 Boll Weevil (Anthonomus grandis)
(§1) For evaluating control of boll weevil (Anthonomus grandis) the test unit consisted of 24-well-microtiter plates containing an insect diet and 20-30 A. grandis eggs. The compounds were formulated using a solution containing 75% v/v water and 25% v/v DMSO. Different concentrations of formulated compounds were sprayed onto the insect diet at 20 μl, using a custom built micro atomizer, at two replications. After application, microtiter plates were incubated at about 23±1° C. and about 50±5% relative humidity for 5 days. Egg and larval mortality was then visually assessed.

[3] = test system: Rice brown plant hopper (Nilaparvata lugens); experiment: B.11 Rice brown plant hopper test on sprayed rice seedlings; settings: in comparison with untreated controls, after 72 hours
Procedure: B.11 Rice brown plant hopper (Nilaparvata lugens)
Rice seedlings were cleaned and washed 24 hours before spraying. The active compounds were formulated in 50:50 acetone:water (vol:vol) and 0.1% vol/vol surfactant (EL 620) was added. Potted rice seedlings were sprayed with 5 ml test solution, air dried, placed in cages and inoculated with 10 adults. Treated rice plants were kept at about 28-29° C. and relative humidity of about 50-60%. Percent mortality was recorded after 72 hours.

[4] = test system: Cowpea Aphid (Aphis craccivora); experiment: B.1 Cowpea aphid spray test on potted cowpea plants; settings: in comparison with untreated controls, population reduction assessed after 24, 72 and 120 hours
Procedure: B.1 Cowpea Aphid (Aphis craccivora)
The active compounds were formulated in 50:50 (v/v) acetone:water. The test solution was prepared at the day of use. Potted cowpea plants colonized with approximately 100-150 aphids of various stages were sprayed after the pest population has been recorded. Population reduction was assessed after 24, 72, and 120 hours.

[5] = test system: Orchid Thrips (Dichromothrips corbetti); experiment: B.4 Orchid thrips floral-immersion test; settings: 96 h, in comparison with untreated controls, after 4 days
Procedure: B.4 Orchid Thrips (Dichromothrips Corbetti)
Dichromothrips corbetti adults used for bioassay are obtained from a colony maintained continuously under laboratory conditions. For testing purposes, the test compound is diluted to a concentration of 300 ppm (wt compound: vol diluent) in a 1:1 mixture of acetone:water (vol:vol), plus 0.01% vol/vol Kinetic® surfactant. Thrips potency of each compound is evaluated by using a floral-immersion technique. Plastic petri dishes are used as test arenas. All petals of individual, intact orchid flowers are dipped into treatment solution and allowed to dry. Treated flowers are placed into individual petri dishes along with 10-15 adult thrips. The petri dishes are then covered with lids. All test arenas are held under continuous light and a temperature of about 28° C. for duration of the assay. After 4 days, the numbers of live thrips are counted on each flower, and along inner walls of each petri dish. The level of thrips mortality is extrapolated from pre-treatment thrips numbers.

[6] = test system: Yellow Fever Mosquito (Aedes aegypti); experiment: whole plant or invertebrate; settings: 48 h, in comparison with untreated controls, larval mortality after 2 days
Procedure: B.12 Yellow Fever Mosquito (Aedes aegypti)
For evaluating control of yellow fever mosquito (Aedes aegypti) the test unit consisted of 96-well-microtiter plates containing 200 μl of tap water per well and 5-15 freshly hatched A. aegypti larvae. The compounds or mixtures were formulated using a solution containing 75% water and 25% DMSO. Different concentrations of formulated compounds or mixtures were sprayed onto the insect diet at 2.5 μl, using a custom built micro atomizer, at two replications. After application, microtiter plates were incubated at 28±1° C., 80±5% relative humidity for 2 days. Larval mortality was then visually assessed.

[7] = test system: Green Peach Aphid (Myzus persicae); experiment: B.3 Green peach aphid systemic test, artificial diet under membrane; settings: 72 h, concentration of the test solution 2500 mg/L, 3 days
Excerpt: B.3 Green Peach Aphid (Myzus persicae)
For evaluating control of green peach aphid (Myzus persicae) through systemic means the test unit consisted of 96-well-microtiter plates containing liquid artificial diet under an artificial membrane. The compounds were formulated using a solution containing 75% v/v water and 25% v/v DMSO. Different concentrations of formulated compounds were pipetted into the aphid diet, using a custom built pipetter, at two replications. After application, 5-8 adult aphids were placed on the artificial membrane inside the microtiter plate wells. The aphids were then allowed to suck on the treated aphid diet and incubated at about 23±1° C. and about 50±5% relative humidity for 3 days. Aphid mortality and fecundity was then visually assessed.

[8] = test system: Vetch Aphid (Megoura viciae); experiment: B.7 Vetch aphid test on broad bean leaf disks; settings: foliar, 120 h, in comparison with untreated controls, 5 days
Procedure: B.7 Vetch Aphid (Megoura viciae)
For evaluating control of vetch aphid (Megoura viciae) through contact or systemic means the test unit consisted of 24-well-microtiter plates containing broad bean leaf disks. The compounds were formulated using a solution containing 75% v/v water and 25% v/v DMSO. Different concentrations of formulated compounds were sprayed onto the leaf disks at 2.5 μl, using a custom built micro atomizer, at two replications. After application, the leaf disks were air-dried and 5-8 adult aphids placed on the leaf disks inside the microtiter plate wells. The aphids were then allowed to suck on the treated leaf disks and incubated at about 23±1° C. and about 50±5% relative humidity for 5 days. Aphid mortality and fecundity was then visually assessed.

[9] = test system: Mediterranean Fruitfly (Ceratitis capitata); experiment: B.2 Mediterranean fruitfly microtiter diet test, egg and larval mortality; settings: 120 h, in comparison with untreated controls, egg and larval mortality after 5 days
Procedure: B.2 Mediterranean Fruitfly (Ceratitis capitata)
as §1, with “Mediterranean fruitfly (Ceratitis capitata)” for “boll weevil (Anthonomus grandis)”, “microtiter” for “24-well-microtiter”, “50-80 C. capitata” for “20-30 A. grandis”, “5” for “20”, “28±1°” for “23±1°”, “80±5%” for “50±5%”

C#Cc1ccc(C(C#N)(C#N)Cc2ccc(C(F)(F)F)nc2)cc1 [II-1]
≥ 75%: mortality at 500 ppm [1] | mortality at 2500 ppm [2] | mortality at 300 ppm [3]

N#CC(C#N)(Cc1ccc(C(F)(F)F)nc1)c1ccc(Cl)cc1 [II-2]
≥ 75%: mortality at 500 ppm [4] | mortality at 500 ppm [5] | mortality at 500 ppm [1] | mortality at 2500 ppm [2] | mortality at 2500 ppm [6]

N#CC(C#N)(Cc1ccc(Br)cn1)c1ccc(F)cc1 [II-10, 2-[(5-bromo-2-pyridyl)methyl]-2-(4-fluorophenyl)propanedinitrile]
≥ 75%: mortality at 500 ppm [5] | mortality at 2500 ppm [2] | mortality at 300 ppm [3]

N#CC(C#N)(Cc1ccc(F)cn1)c1ccc(F)cc1 [II-12]
≥ 75%: mortality at 500 ppm [1]

N#CC(C#N)(Cc1ccc(C(F)(F)F)nn1)c1ccccc1 [II-13]
≥ 75%: mortality at 2500 µg/mL [7] | mortality at 500 ppm [1] | mortality at 2500 ppm [2] | mortality at 2500 ppm [6]

N#CC(C#N)(Cc1ccc(C(F)(F)F)nn1)c1cccc(F)c1 [II-15]
≥ 75%: mortality at 500 ppm [4] | mortality at 2500 µg/mL [7] | mortality at 500 ppm [5] | mortality at 500 ppm [1] | mortality at 2500 ppm [2] | mortality at 2500 ppm [6]

N#CC(C#N)(Cc1ncc(C(F)(F)F)cn1)c1cccc(F)c1 [II-18]
≥ 75%: mortality at 2500 µg/mL [7] | mortality at 500 ppm [5] | mortality at 500 ppm [1] | mortality at 2500 ppm [8] | mortality at 2500 ppm [2] | mortality at 2500 ppm [6]

Cc1cccc(C(C#N)(C#N)Cc2ccc(C(F)(F)F)nc2)c1 [II-22]
≥ 75%: mortality at 300 ppm [3]

N#CC(C#N)(Cc1cnc(C(F)(F)F)nc1)c1ccc(F)cc1 [II-23]
≥ 75%: mortality at 500 ppm [4] | mortality at 2500 ppm [9] | mortality at 2500 µg/mL [7] | mortality at 500 ppm [5] | mortality at 500 ppm [1] | mortality at 2500 ppm [8] | mortality at 2500 ppm [2] | mortality at 300 ppm [3] | mortality at 2500 ppm [6]

N#CC(C#N)(Cc1ccc(C(F)(F)F)nc1)c1ccccc1F [II-24]
≥ 75%: mortality at 500 ppm [5] | mortality at 500 ppm [1] | mortality at 2500 ppm [2] | mortality at 300 ppm [3] | mortality at 2500 ppm [6]

N#CC(C#N)(Cc1cnc(C(F)(F)F)cn1)c1ccc(F)cc1 [II-27]
≥ 75%: mortality at 2500 ppm [9] | mortality at 500 ppm [5] | mortality at 500 ppm [1] | mortality at 2500 ppm [8] | mortality at 2500 ppm [2] | mortality at 300 ppm [3] | mortality at 2500 ppm [6]

N#CC(C#N)(Cc1ccccn1)c1ccccc1 [II-29]
≥ 75%: mortality at 2500 ppm [6]

N#CC(C#N)(Cc1ccc(C(F)(F)F)cn1)c1ccccc1F [II-36]
≥ 75%: mortality at 500 ppm [1] | mortality at 2500 ppm [2] | mortality at 300 ppm [3] | mortality at 2500 ppm [6]

Cc1cccc(C(C#N)(C#N)Cc2ccc(C(F)(F)F)cn2)c1 [II-37]
≥ 75%: mortality at 2500 ppm [6]

COc1cccc(C(C#N)(C#N)Cc2ccc(C(F)(F)F)cn2)c1 [II-39]
≥ 75%: mortality at 2500 µg/mL [7]

N#CC(C#N)(Cc1ccc(C(F)(F)F)nc1)c1cc(F)cc(C(F)(F)F)c1 [II-46]
≥ 75%: mortality at 500 ppm [5] | mortality at 2500 ppm [6]

Cc1cc(C)cc(C(C#N)(C#N)Cc2ccc(C(F)(F)F)cn2)c1 [II-47]
≥ 75%: mortality at 500 ppm [4] | mortality at 2500 ppm [6]

N#CC(C#N)(Cc1ccc(C(F)(F)F)nc1)c1cc(C(F)(F)F)cc(C(F)(F)F)c1 [II-54]
≥ 75%: mortality at 2500 ppm [6]

N#CC(C#N)(Cc1ccc(C(F)(F)F)cn1)c1cc(C(F)(F)F)cc(C(F)(F)F)c1 [II-60]
≥ 75%: mortality at 2500 ppm [6]

N#CC(C#N)(Cc1c(Cl)cncc1Cl)c1cc(F)c(F)c(F)c1 [II-66]
≥ 75%: mortality at 2500 ppm [8] | mortality at 2500 ppm [6]
